Results: ChEMBL document CHEMBL4371003, “Discovery of Novel Dual Mechanism of Action Src Signaling and Tubulin Polymerization Inhibitors (KX2-391 and KX2-361)” (J Med Chem, 2018)

Experiments:
NCI-H460 = assay: Antitumor activity against human NCI-H460 cells; type: functional, cell-based
KM12 [1] = assay: Antitumor activity against human KM12 cells; type: functional, cell-based
A549 = assay: Antitumor activity against human A549 cells; type: functional, cell-based
[2] = molecular target: T1, Proto-oncogene tyrosine-protein kinase Src (Homo sapiens, UniProt P12931); assay: Inhibition of human recombinant pp60c-src expressed in baculovirus infected Sf9 insect cells using poly(Glu,Tyr) 4:1 as substrate after 15 mins
[3] = Inhibition of human c-SRC expressed in mouse NIH/3T3 cells assessed as reduction in BrdU incorporation after 24 hrs by ELISA
[4] = molecular target: T1, Proto-oncogene tyrosine-protein kinase Src; assay: Inhibition of human c-SRC expressed in mouse NIH/3T3 cells assessed as reduction in cell growth; type: cell-based
Insulin receptor [5] = molecular target: T2, Insulin receptor (Homo sapiens, UniProt P06213); assay: Non-competitive inhibition of human placental insulin receptor expressed in CHO cell membrane assessed as decrease in insulin-stimulated A2 phosphorylation preincubated for 15 mins followed by substrate addition and measured after 15 mins in presence of [gamma-32P]ATP by Dixon plot analysis; type: cell-based
Insulin receptor [6] = molecular target: T2, Insulin receptor; assay: Inhibition of human placental insulin receptor expressed in CHO cells assessed as decrease in insulin-stimulated [3H]-2-deoxyglucose uptake preincubated for 1 hr; type: cell-based
HT-29 = assay: Antiproliferative activity against human HT-29 cells in presence of 1.5% FCS by BrdU incorporation assay; type: functional, cell-based
KM12 [7] = assay: Antiproliferative activity against human KM12 cells by BrdU incorporation assay; type: functional
[8] = Oral bioavailability in mouse; type: ADME, organism-based; conditions: in vivo

T1 sequence (P12931 2-536 limits assumed): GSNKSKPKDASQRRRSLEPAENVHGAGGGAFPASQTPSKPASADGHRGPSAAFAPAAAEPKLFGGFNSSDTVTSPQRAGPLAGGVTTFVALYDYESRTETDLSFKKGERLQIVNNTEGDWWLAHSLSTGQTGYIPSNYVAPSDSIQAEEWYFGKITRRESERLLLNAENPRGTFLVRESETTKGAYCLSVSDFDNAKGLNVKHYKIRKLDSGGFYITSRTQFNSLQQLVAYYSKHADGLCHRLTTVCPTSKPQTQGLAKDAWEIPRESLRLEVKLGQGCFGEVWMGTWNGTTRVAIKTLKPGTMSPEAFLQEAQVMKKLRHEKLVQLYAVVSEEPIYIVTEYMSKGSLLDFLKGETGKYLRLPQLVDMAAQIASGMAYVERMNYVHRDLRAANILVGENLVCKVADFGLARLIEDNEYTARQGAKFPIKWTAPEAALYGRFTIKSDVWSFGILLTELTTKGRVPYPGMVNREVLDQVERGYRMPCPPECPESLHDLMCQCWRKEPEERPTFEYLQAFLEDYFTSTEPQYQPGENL
T2 sequence (P06213 28-758 limits assumed): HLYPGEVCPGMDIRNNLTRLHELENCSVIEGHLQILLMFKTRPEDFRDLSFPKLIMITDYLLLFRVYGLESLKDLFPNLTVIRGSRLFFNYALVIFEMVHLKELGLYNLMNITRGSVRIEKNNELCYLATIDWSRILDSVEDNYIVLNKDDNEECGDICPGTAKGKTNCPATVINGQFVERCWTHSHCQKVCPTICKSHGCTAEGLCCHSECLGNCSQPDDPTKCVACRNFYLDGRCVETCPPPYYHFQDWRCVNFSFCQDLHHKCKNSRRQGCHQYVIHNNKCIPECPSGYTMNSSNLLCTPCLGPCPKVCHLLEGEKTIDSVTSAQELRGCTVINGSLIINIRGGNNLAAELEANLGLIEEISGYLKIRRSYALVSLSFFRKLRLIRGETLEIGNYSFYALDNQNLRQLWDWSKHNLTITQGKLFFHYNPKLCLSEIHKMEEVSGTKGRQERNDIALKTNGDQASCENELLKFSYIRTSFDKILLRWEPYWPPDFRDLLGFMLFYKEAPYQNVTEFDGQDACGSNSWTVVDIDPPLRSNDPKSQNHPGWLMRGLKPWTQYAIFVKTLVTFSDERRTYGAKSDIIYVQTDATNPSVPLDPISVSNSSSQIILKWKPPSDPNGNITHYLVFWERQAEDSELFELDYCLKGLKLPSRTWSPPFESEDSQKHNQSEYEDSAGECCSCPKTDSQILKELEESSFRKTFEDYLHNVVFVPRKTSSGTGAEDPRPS
T2 sequence (P06213 763-1382 limits assumed): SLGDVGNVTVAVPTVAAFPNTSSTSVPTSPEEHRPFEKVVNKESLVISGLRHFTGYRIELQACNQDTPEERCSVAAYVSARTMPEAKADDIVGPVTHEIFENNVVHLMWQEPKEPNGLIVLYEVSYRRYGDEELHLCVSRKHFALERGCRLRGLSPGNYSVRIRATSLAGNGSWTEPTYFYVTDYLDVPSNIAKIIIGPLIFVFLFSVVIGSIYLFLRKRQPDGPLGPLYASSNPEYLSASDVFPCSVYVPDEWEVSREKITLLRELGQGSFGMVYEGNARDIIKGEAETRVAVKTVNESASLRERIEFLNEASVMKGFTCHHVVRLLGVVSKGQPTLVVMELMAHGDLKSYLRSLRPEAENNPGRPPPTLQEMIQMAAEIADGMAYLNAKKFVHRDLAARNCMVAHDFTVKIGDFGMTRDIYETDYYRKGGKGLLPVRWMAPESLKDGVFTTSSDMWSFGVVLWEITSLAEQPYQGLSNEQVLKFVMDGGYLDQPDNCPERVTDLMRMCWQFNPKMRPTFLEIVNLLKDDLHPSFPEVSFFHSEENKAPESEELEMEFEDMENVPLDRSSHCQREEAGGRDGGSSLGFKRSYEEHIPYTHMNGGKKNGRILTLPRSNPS

`O=C(NCc1cccc(O)c1)c1cc2cc(O)ccc2[nH]1` gave an IC50 (NCI-H460) of 59 µM, an IC50 (KM12 [1]) of 4.2 µM and an IC50 (A549) of 41 µM.

With `COc1cc2c(Nc3c(Cl)ccc4c3OCO4)ncnc2cc1OCCCN1CCCCC1` the IC50 [2] was < 0.004 µM, the IC50 [3] was 0.11 µM and the GI50 [4] was 0.087 µM.

Work on `O=P(O)(O)C(O)c1ccc2ccccc2c1` (stereo not drawn) yielded a Ki (Insulin receptor [5]) of 95 µM and an IC50 (Insulin receptor [6]) of 10 µM.

`O=C(Cc1ccc(-c2ccccc2)cc1)NCc1cccc(F)c1` gave an IC50 (HT-29) of 0.877 µM and a GI50 (KM12 [7]) of 0.41 µM.

Compound `O=C(NCc1cccc(F)c1)c1cc2cc(F)ccc2[nH]1` has an IC50 (NCI-H460) of 15 µM.

In the case of `O=C(Cc1ccc(-c2ccc(OCCN3CCOCC3)cc2)cn1)NCc1cccc(F)c1`, the IC50 (HT-29) is reported as 0.111 µM and the bioavailability [8] is reported as 64%.
